Source: US6835323B2, “Aqueous hydraulic medium” (Kemira Oyj, priority 1999, dated 2004)
≈ marks a conversion by molar mass, not a printed value.

Columns and labels:
[1] = system: Pseudomonas putila bacterium; conditions: cited from earlier work
[2] = system: various microbes of paper-industry waste paste; conditions: inoculated with microbes, within two days
Experimental: The test was conducted so that each solution to be investigated was taken into two plastic sample flasks, 60 ml into each. One of the two flasks was inoculated with 2 g of paper-industry waste paste containing various microbes, such paste being known as a favorable growth medium for microbes. After mixing, the samples were allowed to stand at room temperature for 2 days.
Culture tests were performed on the samples in a laboratory specialized in microbiologic assays.
The assay of aerobic bacteria was performed using a PCA substrate and incubation for 2 days at 37° C. For the assay of anaerobic bacteria, Brewer's agar and incubation for 2 days in anaerobic vessels at 37° C. were used. In the assay of slime-forming bacteria, PCA-agar+saccharose 50 g/l and incubation for 2 days at 37° C. were used. The slimy colonies were counted. Yeasts and molds were assayed using a Saboraud maltose agar substrate and incubation for 3-4 days at 30° C.

SMILES	EC 50 value [1] [µg/mL]	Effect on inoculated microbes [2]
O=CO [formic acid]	46.7 (≈ 1010 µM)	–
O=C[O-].[K+] [potassium formate]	–	does not form a growth medium for microbes
CCC(=O)O [propionic acid]	59.6 (≈ 805 µM)	–
